Source: patent publication US20220274979A1 (Bayer Pharma Aktiengesellschaft, priority 2018, published 2022)
Read-outs that look alike come from different tables or passages of the source.

Columns and labels:
[1] = biological target: T1, hSOS1 (hSOS1-mediated loading of hK-RasG12C-GDP) (Homo sapiens, UniProt Q07889); assay: Biochemical Assay 3: hK-RasG12C activation assay by hSOS1 (loading with fluorescent GTP analog, HTRF); details: no GTP
T1 construct: hSOS1 (amino acid 564-1049); made in house; host or cells: E. coli BL21 (DE3)
T1 sequence (Q07889 with tags, fused parts or gaps): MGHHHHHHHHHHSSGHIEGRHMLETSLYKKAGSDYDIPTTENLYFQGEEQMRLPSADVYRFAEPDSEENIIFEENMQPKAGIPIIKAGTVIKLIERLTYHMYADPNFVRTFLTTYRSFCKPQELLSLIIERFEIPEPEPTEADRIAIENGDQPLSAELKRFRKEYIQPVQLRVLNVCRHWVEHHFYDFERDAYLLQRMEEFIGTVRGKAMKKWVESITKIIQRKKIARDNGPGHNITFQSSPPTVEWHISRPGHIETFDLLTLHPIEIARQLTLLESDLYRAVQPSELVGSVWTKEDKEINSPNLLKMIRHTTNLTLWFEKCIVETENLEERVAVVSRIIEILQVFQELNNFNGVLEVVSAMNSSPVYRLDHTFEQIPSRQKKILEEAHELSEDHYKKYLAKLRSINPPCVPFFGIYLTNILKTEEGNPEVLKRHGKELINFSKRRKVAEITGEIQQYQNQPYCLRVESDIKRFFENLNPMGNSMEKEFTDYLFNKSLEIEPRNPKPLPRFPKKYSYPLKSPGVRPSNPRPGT
Excerpt: Biochemical Assay 3: hK-RasG12C Activation Assay by hSOS1
K-Ras is a small GTPase that can bind GDP and GTP. The guanine nucleotide exchange factor SOS1 catalyzes the activation of K-Ras by promoting the exchange of GDP to GTP. SOS1 binds to K-Ras-GDP thereby opening the GDP-binding pocket to facilitate GDP release. Rebinding of excess nucleotide leads to dissociation of the K-Ras-SOS1 intermediate complex leaving K-Ras loaded with the nucleotide.
This assay quantifies human SOS1-(hSOS1-)mediated loading of human K-Ras^G12C-GDP (hK-RasG12C-GDP) with a fluorescent GTP-analog. Detection of successful loading is achieved by measuring homogenous time-resolved fluorescence resonance energy transfer (HTRF) from antiGST-Terbium (FRET donor) bound to GST-hK-RasG12C (see below) to the loaded fluorescent GTP analog (FRET-acceptor).
The fluorescent GTP-analog EDA-GTP-Dy647P1 (2′/3′-O-(2-Aminoethyl-carbamoyl)-guanosine-5′-triphosphate labelled with Dy647P1 (Dyomics GmbH, Germany)) was synthesized by Jena Biosciences GmbH (Germany) and supplied as a 1 mM aqueous solution.
(§1) The assay buffer contained 10 mM HEPES pH 7.4 (Applichem), 150 mM NaCl (Sigma), 5 mM MgCl2 (Sigma), 1 mM DTT (Thermofisher), 0.05% BSA Fraction V, pH 7.0, (ICN Biomedicals), 0.0025% (v/v) Igepal (Sigma).
Concentrations of protein batches used were optimized to be within the linear range of the HTRF signal. A hRas working solution was prepared in assay buffer containing typically 100 nM GST-hK-RasG12C and 2 nM antiGST-Tb (Cisbio, France). A hSOS1 working solution was prepared in assay buffer containing typically 20 nM hSOS1 and 200 nM EDA-GTP-Dy647P1. An inhibitor control solution was prepared in assay buffer containing 200 nM EDA-GTP-Dy647P1 without hSOS1.
(§2) Fifty nl of a 100-fold concentrated solution of the test compound in DMSO were transferred into a black microtiter test plate (384 or 1536, Greiner Bio-One, Germany) For this, either a Hummingbird liquid handler (Digilab, Mass., USA) or an Echo acoustic system (Labcyte, Calif., USA) was used.
(§3) All steps of the assay were performed at 20° C. A volume of 2.5 μl of the hRas working solution was added to all wells of the test plate using a Multidrop dispenser (Thermo Labsystems). After 10 min. preincubation, 2.5 μl of the hSOS1 working solution were added to all wells except for those wells at the side of the test plate that were subsequently filled with 2.5 μl of the inhibitor control solution. After 30 mM incubation the fluorescence was measured with a Pherastar (BMG, Germany) using the HTRF module (excitation 337 nm, emission 1: 620 nm, emission 2:665 nm).
(§4) IC50 values were calculated by 4-Parameter fitting using a commercial software package (Genedata Screener, Switzerland).

[2] = biological target: T2, hSOS1 (hSOS1-mediated nucleotide exchange of hK-RasG12C) (Homo sapiens, UniProt Q07889); assay: Biochemical Assay 2: hK-RasG12C activation assay by hSOS1 at high GTP concentration (HTRF nucleotide exchange); details: high GTP (50 μM GTP)
T2 construct: hSOS1 (amino acid 564-1049); made in house; host or cells: E. coli BL21 (DE3)
T2 sequence (Q07889 with tags, fused parts or gaps): T1 sequence (Q07889 with tags, fused parts or gaps)
Excerpt: Biochemical Assay 2: hK-RasG12C Activation Assay by hSOS1 at High GTP Concentration
This assay quantifies human SOS1-mediated nucleotide exchange of human K-Ras^G12C (hK-RasG12C) preloaded with a fluorescent […] and in presence of an excess of free GTP. Loaded hK-RasG12C generates a high HTRF-signal by energy transfer from antiGST-Terbium (FRET donor) bound to hK-Ras to the loaded fluorescent GDP analog (FRET-acceptor). hSOS1 activity exchanges the fluorescent GDP for non-fluorescent GTP and therefore leads to a reduction of the HTRF signal.
The fluorescent GDP-analog EDA-GDP-Dy647P1 (2′/3′-O-(2-Aminoethyl-carbamoyl)-guanosine-5′-diphosphate labelled with Dy647P1 (Dyomics GmbH, Germany)) was synthesized by Jena Biosciences GmbH (Germany) and supplied as a 1 mM aqueous solution.
Concentrations of protein batches used were optimized to be within the linear range of the HTRF signal.
Addition of 20 μl 1 M MgCl2 (Sigma) to final 40 mM and store on ice. Purification into buffer (10 mM HEPES pH 7.4 (Applichem), 150 mM NaCl (Sigma), 5 mM MgCl2 (Sigma)) by use of a PD-Minitrap desalting column (GE Healthcare). Concentration of 1 ml purified hK-Ras-GDP-Dy647 is approx. 4-5 μM.
as §1
A Ras working solution was prepared in assay buffer containing typically 80 nM loaded GST-hK-RasG12C-EDA-GDP-Dy647P1 and 2 nM antiGST-Tb (Cisbio, France).
Alternatively, the inhibitor control solution was prepared by supplementing the hSOS1 working solution with 20 μM of 6,7-dimethoxy-N-[(1R)-1-(1-naphthyl)ethyl]quinazolin-4-amine which was used to calibrate the assay.
as §2
as §3, with “Ras” for “hRas”, “2” for “10”, “20 min.” for “30 mM”, “1:620” for “1: 620”
as §4

[3] = biological target: T3, hK-RasG12C - hSOS1 interaction (Homo sapiens, UniProt Q07889); assay: Biochemical Assay 1: hK-RasG12C interaction assay with hSOS1 (HTRF); format: binding
T3 construct: hSOS1 (amino acid 564-1049); made in house; host or cells: E. coli BL21 (DE3)
T3 sequence (Q07889 with tags, fused parts or gaps): T1 sequence (Q07889 with tags, fused parts or gaps)
Procedure: Biochemical Assay 1: hK-RasG12C Interaction Assay with hSOS1
This assay quantifies the equilibrium interaction of human SOS1 (hSOS1) with human K-Ras^G12C (hK-RasG12C). Detection of the interaction is achieved by measuring homogenous time-resolved fluorescence resonance energy transfer (HTRF) from antiGST-Europium (FRET donor) bound to GST-K-RasG12C to anti-6His-XL665 bound to His-tagged hSOS1 (FRET-acceptor).
The assay buffer contained 5 mM HEPES pH 7.4 (Applichem), 150 mM NaCl (Sigma), 10 mM EDTA (Promega), 1 mM DTT (Thermofisher), 0.05% BSA Fraction V, pH 7.0, (ICN Biomedicals), 0.0025% (v/v) Igepal (Sigma) and 100 mM KF (FLUKA).
Concentrations of protein batches used were optimized to be within the linear range of the HTRF signal. A Ras working solution was prepared in assay buffer containing typically 10 nM GST-hK-RasG12C and 2 nM antiGST-Eu(K) (Cisbio, France). A SOS1 working solution was prepared in assay buffer containing typically 20 nM His-hSOS1 and 10 nM anti-6His-XL665 (Cisbio, France). An inhibitor control solution was prepared in assay buffer containing 10 nM anti-6His-XL665 without hSOS1.
as §2
as §3, with “Ras” for “hRas”, “[…]” for “10 min.”, “SOS1” for “hSOS1”, “[…]” for “30”, “1:620” for “1: 620”
as §4

SMILES	IC50 [1]	IC50 [2]	IC50 ([3]; values expressed as IC50)	IC50 [3]
Cc1nc(NC(C)c2ccc(-c3ccccc3CN(C)C)s2)c2cc(N3CCNC(=O)C3)ncc2n1 (centres unmarked) [Example 50, 4-(4-{[1-(5-{2-[(dimethylamino)methyl]phenyl}thiophen-2-yl)ethyl]amino}-2-methylpyrido[3,4-d]pyrimidin-6-yl)piperazin-2-one]	54.8 nM	48.8 nM		
CCCOc1cc2c(NC(C)c3ccc(-c4ccccc4CN(C)C)s3)nc(C)nc2cn1 (centres unmarked) [Example 65, N-[1-(5-{2-[(dimethylamino)methyl]phenyl}thiophen-2-yl)ethyl]-2-methyl-6-propoxypyrido[3,4-d]pyrimidin-4-amine]		32.8 nM		
Cc1nc(NC(C)c2ccc(-c3ccccc3CN(C)C)s2)c2cc(OCCN(C)C)ncc2n1 (centres unmarked) [Example 66, 6-[2-(dimethylamino)ethoxy]-N-[1-(5-{2-[(dimethylamino)methyl]phenyl}thiophen-2-yl)ethyl]-2-methylpyrido[3,4-d]pyrimidin-4-amine]		22.7 nM	30.4 nM	
CC(=O)N(c1cccc(C(=O)NC2CN(c3cc4c(NC(C)c5ccc(-c6ccccc6CN(C)C)s5)nc(C)nc4cn3)C2)c1)[C@@H]1CCN(C(=O)OC(C)(C)C)C1 (stereo partly drawn) [Example 97, tert-butyl (3R)-3-[acetyl(3-{[1-(4-{[1-(5-{2-[(dimethylamino)methyl]phenyl}-2-thienyl)-ethyl]amino}-2-methylpyrido[3,4-d]pyrimidin-6-yl)azetidin-3-yl]carbamoyl}-phenyl)amino]pyrrolidine-1-carboxylate]	554 nM	298 nM	293 nM	
CC(=O)N(c1cccc(C(=O)NC2CN(c3cc4c(NC(C)c5ccc(-c6ccccc6CN(C)C)s5)nc(C)nc4cn3)C2)c1)C1CCN(C(=O)OC(C)(C)C)CC1 (centres unmarked) [Example 98, tert-butyl 4-[acetyl(3-{[1-(4-{[1-(5-{2-[(dimethylamino)methyl]phenyl}thiophen-2-yl)ethyl]amino}-2-methylpyrido[3,4-d]pyrimidin-6-yl)azetidin-3-yl]carbamoyl}-phenyl)amino]piperidine-1-carboxylate]	620 nM	428 nM		271 nM
Cc1nc(NC(C)c2ccc(-c3ccccc3CN(C)C)s2)c2cc(N3CC(NCc4ccccc4)C3)ncc2n1 (centres unmarked) [Example 99, 6-[3-(benzylamino)azetidin-1-yl]-N-[1-(5-{2-[(dimethylamino)methyl]phenyl}thiophen-2-yl)ethyl]-2-methylpyrido[3,4-d]pyrimidin-4-amine]	82.5 nM	58.8 nM	53.2 nM	
Cc1nc(NC(C)c2ccc(-c3ccccc3CN(C)C)s2)c2cc(N3CC(NC(=O)N4CCS(=O)(=O)CC4)C3)ncc2n1 (centres unmarked) [Example 100, N-[1-(4-{[1-(5-{2-[(dimethylamino)methyl]phenyl}thiophen-2-yl)ethyl]amino}-2-methylpyrido[3,4-d]pyrimidin-6-yl)azetidin-3-yl]thiomorpholine-4-carboxamide 1,1-dioxide]	156 nM	103 nM	85.8 nM	
